molecular target: Bek (Homo sapiens, UniProt P21802); test: Inhibitory activity against Bek-autophosphorylation using ELISA method in OCUM-2MD3 cells; type: cell-based; settings: 1 hr with compound, read-out: IC50 (concentration necessary for inhibiting 50% of Bek-phosphorylation)
Summary of the method: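 Sandwich ELISA (anti-phosphotyrosine capture, anti-Bek detection, peroxidase, 450 nm) measured Bek autophosphorylation in OCUM-2MD3 lysates after 1 hr compound treatment at 37° C in 0.1% serum medium. IC50 derived by scaling between no-drug (100%) and excess positive control at 1000 nM (0%).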

Chain of Bek (P21802 431-767 limits assumed): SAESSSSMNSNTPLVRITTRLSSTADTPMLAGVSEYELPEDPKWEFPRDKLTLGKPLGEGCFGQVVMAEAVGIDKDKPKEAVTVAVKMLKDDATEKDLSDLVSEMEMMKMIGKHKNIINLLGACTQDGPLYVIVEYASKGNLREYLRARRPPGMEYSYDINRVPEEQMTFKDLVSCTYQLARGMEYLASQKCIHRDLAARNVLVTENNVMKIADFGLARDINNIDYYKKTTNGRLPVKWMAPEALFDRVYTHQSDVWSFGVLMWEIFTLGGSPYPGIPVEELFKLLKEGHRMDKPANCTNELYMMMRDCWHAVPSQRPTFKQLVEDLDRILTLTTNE

| IC50 [nM] | Structure (SMILES) |
| --- | --- |
| < 10 | COc1cc2c(Oc3ccc(NC(=O)NCCC(C)(C)C)c(Cl)c3)ccnc2cc1OCCN1CCN(C)CC1 [Compound 115, 1-(2-Chloro-4-{6-methoxy-7-[2-(4-methyl-piperazin-1-yl)-ethoxy]-quinolin-4-yloxy}-phenyl)-3-(3,3-dimethyl-butyl)-urea] |
| 14.4 | COc1cc2c(Oc3ccc(NC(=O)NCCC(C)(C)C)c(Cl)c3)ccnc2cc1OCCN1C[C@@H](C)O[C@@H](C)C1 [Compound 116, 1-(2-Chloro-4-{7-[2-(2,6-dimethyl-morpholin-4-yl)-ethoxy]-6-methoxy-quinolin-4-yloxy}-phenyl)-3-(3,3-dimethyl-butyl)-urea] |
| 178 | COc1cc2c(Oc3ccc(NC(=O)NCCC(C)(C)C)c(Cl)c3)ccnc2cc1OCCN1CCC(C)CC1 [Compound 117, 1-(2-Chloro-4-{6-methoxy-7-[2-(4-methyl-piperidin-1-yl)-ethoxy]-quinolin-4-yloxy}-phenyl)-3-(3,3-dimethyl-butyl)-urea] |
| < 10 | COc1cc2c(Oc3ccc(NC(=O)NCCC(C)(C)C)cc3)ccnc2cc1OCCN1CC(C)OC(C)C1 (stereo not shown) [Compound 119, 1-(3,3-Dimethyl-butyl)-3-(4-{7-[2-(2,6-dimethyl-morpholin-4-yl)-ethoxy]-6-methoxy-quinolin-4-yloxy}-phenyl)-urea] |
| 21 | COc1cc2c(Oc3ccc(NC(=O)NCCC(C)(C)C)cc3)ccnc2cc1OCCN1CC(C)CC(C)C1 (stereo not shown) [Compound 120, 1-(3,3-Dimethyl-butyl)-3-(4-{7-[2-(3,5-dimethyl-piperidin-1-yl)-ethoxy]-6-methoxy-quinolin-4-yloxy}-phenyl)-urea] |
| 88 | COc1cc2c(Oc3ccc(NC(=O)NCCC(C)(C)C)cc3)ccnc2cc1OCCN1CCC(c2ccccc2)CC1 [Compound 121, 1-(3,3-Dimethyl-butyl)-3-(4-{6-methoxy-7-[2-(4-phenyl-piperidin-1-yl)-ethoxy]-quinolin-4-yloxy}-phenyl)-urea] |
| < 10 | COc1cc2c(Oc3ccc(NC(=O)NCCC(C)(C)C)cc3)ccnc2cc1OCCN1CCC(N2CCCCC2)CC1 [Compound 123, 1-{4-[7-(2-[1,4′]bipiperidineyl-1′-yl-ethoxy)-6-methoxy-quinolin-4-yloxy]-phenyl}-3-(3,3-dimethyl-butyl)-urea] |
| < 10 | COc1cc2c(Oc3ccc(NC(=O)NCCC(C)(C)C)cc3)ccnc2cc1OCCN1CCC(N2CCCC2)CC1 [Compound 124, 1-(3,3-Dimethyl-butyl)-3-(4-{6-methoxy-7-[2-(4-pyrrolidin-1-yl-piperidin-1-yl)-ethoxy]-quinolin-4-yloxy}-phenyl)-urea] |
| 13 | COc1cc2c(Oc3ccc(NC(=O)NCCC(C)(C)C)c(Cl)c3)ccnc2cc1OCCN1CC(C)OC(C)C1 (stereo not shown) [Compound 125, 1-(2-Chloro-4-{7-[2-(2,6-dimethyl-morpholin-4-yl)-ethoxy]-6-methoxy-quinolin-4-yloxy}-phenyl)-3-(3,3-dimethyl-butyl)-urea] |
| 13.3 | COc1cc2c(Oc3ccc(NC(=O)NCCC(C)(C)C)cc3Cl)ccnc2cc1OCCN1CCOCC1 [Compound 126, 1-{3-Chloro-4-[6-methoxy-7-(2-morpholin-4-yl-ethoxy)-quinolin-4-yloxy]-phenyl}-3-(3,3-dimethyl-butyl)-urea] |
| 9.4 | COc1cc2c(Oc3ccc(NC(=O)NCCC(C)(C)C)cc3Cl)ccnc2cc1OCCN1CC(C)OC(C)C1 (stereo not shown) [Compound 127, 1-(3-Chloro-4-{7-[2-(2,6-dimethyl-morpholin-4-yl)-ethoxy]-6-methoxy-quinolin-4-yloxy}-phenyl)-3-(3,3-dimethyl-butyl)-urea] |
| 48.1 | COc1cc2c(Oc3ccc(NC(=O)NCCC(C)(C)C)cc3F)ccnc2cc1OCCN1CCCCC1 [Compound 129, 1-(3,3-Dimethyl-butyl)-3-{3-fluoro-4-[6-methoxy-7-(2-piperidin-1-yl-ethoxy)-quinolin-4-yloxy]-phenyl}-urea] |
| 162 | COc1cc2c(Oc3ccc(NC(=O)NCCC(C)(C)C)c(F)c3)ccnc2cc1OCCN1C(C)CCCC1C (stereo not shown) [Compound 130, 1-(3,3-Dimethyl-butyl)-3-(4-{7-[2-(2,6-dimethyl-piperidin-1-yl)-ethoxy]-6-methoxy-quinolin-4-yloxy}-2-fluoro-phenyl)-urea] |
| 161 | COc1cc2c(Oc3ccc(NC(=O)NCCC(C)(C)C)c(F)c3)ccnc2cc1OCCN1C(C)(C)CCCC1(C)C [Compound 131, 1-(3,3-Dimethyl-butyl)-3-(2-fluoro-4-{6-methoxy-7-[2-(2,2,6,6-tetramethyl-piperidin-1-yl)-ethoxy]-quinolin-4-yloxy}-phenyl)-urea] |
| 56.2 | COc1cc2nccc(Oc3ccc(NC(=O)NCCC(C)(C)C)c(C)c3)c2cc1OC [Compound 136, 1-[4-(6,7-Dimethoxy-quinolin-4-yloxy)-2-methyl-phenyl]-3-(3,3-dimethyl-butyl)-urea] |
| 317 | COc1cc(Oc2ccnc3cc(OC)c(OC)cc23)ccc1NC(=O)NCCC(C)(C)C [Compound 138, 1-[4-(6,7-Dimethoxy-quinolin-4-yloxy)-2-methoxy-phenyl]-3-(3,3-dimethyl-butyl)-urea] |
| 25 | COc1cc2c(Oc3ccc(NC(=O)NCCC(C)(C)C)cc3)ccnc2cc1OCCCl [Compound 152, 1-{4-[7-(2-Chloro-ethoxy)-6-methoxy-quinolin-4-yloxy]-phenyl}-3-(3,3-dimethyl-butyl)-urea] |

Further lines, the compound ahead of its results:

| Structure (SMILES) | IC50 [nM] |
| --- | --- |
| COc1cc2c(Oc3ccc(NC(=O)NCCC(C)(C)C)cc3)ccnc2cc1OCCN1CCC(Cc2ccccc2)CC1 [Compound 122, 1-(4-{7-[2-(4-Benzyl-piperidin-1-yl)-ethoxy]-6-methoxy-quinolin-4-yloxy}-phenyl)-3-(3,3-dimethyl-butyl)-urea] | 151 |
| COc1cc2c(Oc3ccc(NC(=O)NCCC(C)(C)C)cc3F)ccnc2cc1OCCN1CC(C)OC(C)C1 (stereo not shown) [Compound 128, 1-(3,3-Dimethyl-butyl)-3-(4-{7-[2-(2,6-dimethyl-morpholin-4-yl)-ethoxy]-6-methoxy-quinolin-4-yloxy}-3-fluoro-phenyl)-urea] | < 10 |
| COc1cc2c(Oc3ccc(NC(=O)NCCC(C)(C)C)cc3F)ccnc2cc1OCCN1C(C)CCCC1C (stereo not shown) [Compound 132, 1-(3,3-Dimethyl-butyl)-3-(4-{7-[2-(2,6-dimethyl-piperidin-1-yl)-ethoxy]-6-methoxy-quinolin-4-yloxy}-3-fluoro-phenyl)-urea] | 146 |
| COc1cc2c(Oc3ccc(NC(=O)NC4CCCC(C)(C)C4)c(F)c3)ccnc2cc1OCCN1CCOCC1 (stereo not shown) [Compound 133, 1-(3,3-Dimethyl-cyclohexyl)-3-{2-fluoro-4-[6-methoxy-7-(2-morpholin-4-yl-ethoxy)-quinolin-4-yloxy]-phenyl}-urea] | 9.2 |
| COc1cc2c(Oc3ccc(NC(=O)NC4CCCC(C)(C)C4)c(F)c3)ccnc2cc1OCCN1CC(C)OC(C)C1 (stereo not shown) [Compound 134, 1-(3,3-Dimethyl-cyclohexyl)-3-(4-{7-[2-(2,6-dimethyl-morpholin-4-yl)-ethoxy]-6-methoxy-quinolin-4-yloxy}-2-fluoro-phenyl)-urea] | 11.8 |
| COc1cc2nccc(Oc3ccc(NC(=O)NCCC(C)(C)C)cc3C)c2cc1OC [Compound 137, 1-[4-(6,7-Dimethoxy-quinolin-4-yloxy)-3-methyl-phenyl]-3-(3,3-dimethyl-butyl)-urea] | 66.7 |
| COc1cc2nccc(Oc3ccc(NC(=O)NCCC(C)(C)C)cc3OC)c2cc1OC [Compound 139, 1-[4-(6,7-Dimethoxy-quinolin-4-yloxy)-3-methoxy-phenyl]-3-(3,3-dimethyl-butyl)-urea] | 1160 |
| COc1cc2nccc(Oc3c(Cl)cc(NC(=O)NCCC(C)(C)C)cc3Cl)c2cc1OC [Compound 140, 1-[3,5-Dichloro-4-(6,7-dimethoxy-quinolin-4-yloxy)-phenyl]-3-(3,3-dimethyl-butyl)-urea] | 172 |
| COc1cc2nccc(Oc3ccc(NC(=O)NCCC(C)(C)C)c(C)c3C)c2cc1OC [Compound 141, 1-[4-(6,7-Dimethoxy-quinolin-4-yloxy)-2,3-dimethyl-phenyl]-3-(3,3-dimethyl-butyl)-urea] | 58.6 |
| COc1cc2nccc(Oc3cc(C)c(NC(=O)NCCC(C)(C)C)cc3C)c2cc1OC [Compound 142, 1-[4-(6,7-Dimethoxy-quinolin-4-yloxy)-2,5-dimethyl-phenyl]-3-(3,3-dimethyl-butyl)-urea] | 265 |
| COc1cc2nccc(Oc3ccc(NC(=O)NC(C)(C)CC(C)(C)C)cc3)c2cc1OC [Compound 143, 1-[4-(6,7-Dimethoxy-quinolin-4-yloxy)-phenyl]-3-(1,1,3,3-tetramethyl-butyl)-urea] | 192 |
| COc1cc2nccc(Oc3ccc(NC(=O)NC(C)(C)CC(C)(C)C)c(Cl)c3)c2cc1OC [Compound 144, 1-[2-Chloro-4-(6,7-dimethoxy-quinolin-4-yloxy)-phenyl]-3-(1,1,3,3-tetramethyl-butyl)-urea] | 202 |
| COc1cc2c(Oc3ccc(NC(=O)NCCC(C)(C)C)cc3)ccnc2cc1OCCCBr [Compound 147, 1-{4-[7-(3-Bromo-propoxy)-6-methoxy-quinolin-4-yloxy]-phenyl}-3-(3,3-dimethyl-butyl)-urea] | 654 |
| COc1cc2c(Oc3ccc(NC(=O)NCCC(C)(C)C)cc3)ccnc2cc1OCCCCBr [Compound 148, 1-{4-[7-(4-Bromo-butoxy)-6-methoxy-quinolin-4-yloxy]-phenyl}-3-(3,3-dimethyl-butyl)-urea] | 1670 |
| COc1cc2nccc(Oc3ccc(NC(=O)NCCC(C)(C)CC(C)(C)C)c(F)c3)c2cc1OC [Compound 149, 1-[4-(6,7-Dimethoxy-quinolin-4-yloxy)-2-fluoro-phenyl]-3-(3,3,5,5-tetramethyl-hexyl)-urea] | 218 |
| COc1cc2nccc(Oc3ccc(NC(=O)NCCC(C)(C)C)c(C(F)(F)F)c3)c2cc1OC [Compound 150, 1-[4-(6,7-Dimethoxy-quinolin-4-yloxy)-2-trifluoromethyl-phenyl]-3-(3,3-dimethyl-butyl)-urea] | 63.8 |
| COc1cc2c(Oc3ccc(NC(=O)NCCC(C)(C)C)cc3)ccnc2cc1OCCCCl [Compound 151, 1-{4-[7-(3-Chloro-propoxy)-6-methoxy-quinolin-4-yloxy]-phenyl}-3-(3,3-dimethyl-butyl)-urea] | 221 |

— patent US7495104B2, “Quinoline or quinazoline derivatives inhibiting auto-phosphorylation of fibroblast growth factor receptors” (Kirin Beer Kabushiki Kaisha, priority 2001, dated 2009)
